According to patent US12465627B2, “Immunity-boosting agent, immuno-therapeutic anti-cancer agent, and anti-cancer therapy adverse effect mitigating agent containing anthocyanin-fucoidan complex as active ingredient” (JBKLAB CO., LTD., priority 2017, dated 2025):

Assays:
[1] = mouse, in vivo
[2] = tested on: CD8 T cells and NK cells in blood; test: Immune cell activity and weight recovery in doxorubicin-treated mice; assay type: in vivo, Balb/c mice; conditions: DOX 10 mg/kg on day 1 and 5; oral administration for 14 days; flow cytometry
[3] = tested on: SK-BR-3 (human breast cancer) transplanted tumor; test: Combined administration with doxorubicin in SK-BR-3 transplanted mice; assay type: in vivo, Balb/c mice; conditions: after second intravenous administration of doxorubicin

Row | BASO [1] [%] | EOS [1] [%] | HCT [1] [%] | HGB [1] [g/dL] | LYM [1] [%] | MCHC [1] [g/dL] | MONO [1] [%] | NEUT [1] [%] | PLT [1] | RBC [1] | WBC [1] | Compound | immune cells (CD8 T cell and NK cell) in blood [2] | body weight change [3]
1 | 3.2 | 3 | 52.6 | 16.5 | 53.7 | 15 | 4.3 | 33.9 | 1954 ×10^3 cells/μL | 10.99 ×10^6 cells/μL | 6.57 ×10^3 cells/μL | COc1cccc2c1C(=O)c1c(O)c3c(c(O)c1C2=O)C[C@@](O)(C(=O)CO)C[C@@H]3O[C@H]1C[C@H](N)[C@H](O)[C@H](C)O1 [DOX, doxorubicin] | immune cells decreased | rapid decrease in body weight
2 | 1.5 | 6.1 | 39.8 | 10.9 | 14.3 | 12 | 4.6 | 67.9 | 1242 ×10^3 cells/μL | 9.14 ×10^6 cells/μL | 18.41 ×10^3 cells/μL | fucoidan | – | –
